# Data as given in PubChem BioAssay (NCI).
#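 1) Cells in 96-well plates. 2) Compound, 48 h, 5 concentrations. 3) Linear interpolation between surrounding doses. 4) Unreached endpoint = highest concentration. TGI: total growth inhibition.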
# Tests used:
# Assay in all cases: NCI tumour cell line growth inhibition, 48 h
# 786-0 renal = tested on: 786-0 renal
# A498 renal = tested on: A498 renal
# A549 NSCLC = tested on: A549 NSCLC
# ACHN renal = tested on: ACHN renal
# BT-549 breast = tested on: BT-549 breast
# CAKI-1 renal = tested on: CAKI-1 renal
# CCRF-CEM leukemia = tested on: CCRF-CEM leukemia
# COLO 205 colon = tested on: COLO 205 colon
# DU-145 prostate = tested on: DU-145 prostate
# HCC-2998 colon = tested on: HCC-2998 colon
# HCT-116 colon = tested on: HCT-116 colon
# HCT-15 colon = tested on: HCT-15 colon
# HL-60(TB) leukemia = tested on: HL-60(TB) leukemia
# HOP-92 NSCLC = tested on: HOP-92 NSCLC
# HS 578T breast = tested on: HS 578T breast
# HT29 colon = tested on: HT29 colon
# K-562 leukemia = tested on: K-562 leukemia
# LOX IMVI melanoma = tested on: LOX IMVI melanoma
# M14 melanoma = tested on: M14 melanoma
# MALME-3M melanoma = tested on: MALME-3M melanoma
# MCF7 breast = tested on: MCF7 breast
# MDA-MB-231 breast = tested on: MDA-MB-231 breast
# MDA-MB-435 = tested on: MDA-MB-435
# MDA-N = tested on: MDA-N
# MOLT-4 leukemia = tested on: MOLT-4 leukemia
# NCI-H226 lung = tested on: NCI-H226 lung
# NCI-H23 lung = tested on: NCI-H23 lung
# NCI-H460 lung = tested on: NCI-H460 lung
# NCI-H522 lung = tested on: NCI-H522 lung
# NCI/ADR-RES ovarian = tested on: NCI/ADR-RES ovarian
# OVCAR-3 ovarian = tested on: OVCAR-3 ovarian
# OVCAR-4 ovarian = tested on: OVCAR-4 ovarian
# OVCAR-5 ovarian = tested on: OVCAR-5 ovarian
# OVCAR-8 ovarian = tested on: OVCAR-8 ovarian
# PC-3 prostate = tested on: PC-3 prostate
# RPMI-8226 leukemia = tested on: RPMI-8226 leukemia
# SF-268 CNS = tested on: SF-268 CNS
# SF-295 CNS = tested on: SF-295 CNS
# SF-539 CNS = tested on: SF-539 CNS
# SK-MEL-2 melanoma = tested on: SK-MEL-2 melanoma
# SK-MEL-28 melanoma = tested on: SK-MEL-28 melanoma
# SK-MEL-5 melanoma = tested on: SK-MEL-5 melanoma
# SK-OV-3 ovarian = tested on: SK-OV-3 ovarian
# SN12C renal = tested on: SN12C renal
# SNB-19 CNS = tested on: SNB-19 CNS
# SW-620 colon = tested on: SW-620 colon
# T-47D breast = tested on: T-47D breast
# TK-10 renal = tested on: TK-10 renal
# U251 CNS = tested on: U251 CNS
# UACC-257 melanoma = tested on: UACC-257 melanoma
# UACC-62 melanoma = tested on: UACC-62 melanoma
# UO-31 renal = tested on: UO-31 renal
# EKVX NSCLC = tested on: EKVX NSCLC
# HOP-62 NSCLC = tested on: HOP-62 NSCLC
# IGROV1 ovarian = tested on: IGROV1 ovarian
# KM12 colon = tested on: KM12 colon
# RXF 393 renal = tested on: RXF 393 renal
# SNB-75 CNS = tested on: SNB-75 CNS
smiles,measurement,setting,value
Cc1nn(C2OC(CO)C(O)C(F)C2O)c(=O)[nH]c1=O (stereo not given),TGI,786-0 renal,> 100 µM
same,TGI,A498 renal,> 100 µM
same,TGI,A549 NSCLC,> 100 µM
same,TGI,ACHN renal,> 100 µM
same,TGI,BT-549 breast,> 100 µM
same,TGI,CAKI-1 renal,> 100 µM
same,TGI,CCRF-CEM leukemia,> 100 µM
same,TGI,COLO 205 colon,> 100 µM
same,TGI,DU-145 prostate,> 100 µM
same,TGI,HCC-2998 colon,> 100 µM
same,TGI,HCT-116 colon,> 100 µM
same,TGI,HCT-15 colon,> 100 µM
same,TGI,HL-60(TB) leukemia,> 100 µM
same,TGI,HOP-92 NSCLC,> 100 µM
same,TGI,HS 578T breast,> 100 µM
same,TGI,HT29 colon,> 100 µM
same,TGI,K-562 leukemia,> 100 µM
same,TGI,LOX IMVI melanoma,> 100 µM
same,TGI,M14 melanoma,> 100 µM
same,TGI,MALME-3M melanoma,> 100 µM
same,TGI,MCF7 breast,> 100 µM
same,TGI,MDA-MB-231 breast,> 100 µM
same,TGI,MDA-MB-435,> 100 µM
same,TGI,MDA-N,> 100 µM
same,TGI,MOLT-4 leukemia,> 100 µM
same,TGI,NCI-H226 lung,> 100 µM
same,TGI,NCI-H23 lung,> 100 µM
same,TGI,NCI-H460 lung,> 100 µM
same,TGI,NCI-H522 lung,> 100 µM
same,TGI,NCI/ADR-RES ovarian,> 100 µM
same,TGI,OVCAR-3 ovarian,> 100 µM
same,TGI,OVCAR-4 ovarian,> 100 µM
same,TGI,OVCAR-5 ovarian,> 100 µM
same,TGI,OVCAR-8 ovarian,> 100 µM
same,TGI,PC-3 prostate,> 100 µM
same,TGI,RPMI-8226 leukemia,> 100 µM
same,TGI,SF-268 CNS,> 100 µM
same,TGI,SF-295 CNS,> 100 µM
same,TGI,SF-539 CNS,> 100 µM
same,TGI,SK-MEL-2 melanoma,> 100 µM
same,TGI,SK-MEL-28 melanoma,> 100 µM
same,TGI,SK-MEL-5 melanoma,> 100 µM
same,TGI,SK-OV-3 ovarian,> 100 µM
same,TGI,SN12C renal,> 100 µM
same,TGI,SNB-19 CNS,> 100 µM
same,TGI,SW-620 colon,> 100 µM
same,TGI,T-47D breast,> 100 µM
same,TGI,TK-10 renal,> 100 µM
same,TGI,U251 CNS,> 100 µM
same,TGI,UACC-257 melanoma,> 100 µM
same,TGI,UACC-62 melanoma,> 100 µM
same,TGI,UO-31 renal,> 100 µM
C/C(=N\NC1=NCCN1)c1cn(C2=NCCN2)nc1C,TGI,786-0 renal,> 100 µM
same,TGI,A498 renal,> 100 µM
same,TGI,A549 NSCLC,> 100 µM
same,TGI,ACHN renal,> 100 µM
same,TGI,BT-549 breast,> 100 µM
same,TGI,CAKI-1 renal,> 100 µM
same,TGI,COLO 205 colon,> 100 µM
same,TGI,DU-145 prostate,> 100 µM
same,TGI,EKVX NSCLC,> 100 µM
same,TGI,HCC-2998 colon,> 100 µM
same,TGI,HCT-116 colon,> 100 µM
same,TGI,HCT-15 colon,> 100 µM
same,TGI,HOP-62 NSCLC,> 100 µM
same,TGI,HOP-92 NSCLC,> 100 µM
same,TGI,HS 578T breast,> 100 µM
same,TGI,HT29 colon,> 100 µM
same,TGI,IGROV1 ovarian,> 100 µM
same,TGI,K-562 leukemia,> 100 µM
same,TGI,KM12 colon,> 100 µM
same,TGI,M14 melanoma,> 100 µM
same,TGI,MALME-3M melanoma,> 100 µM
same,TGI,MCF7 breast,> 100 µM
same,TGI,MDA-MB-231 breast,> 100 µM
same,TGI,MDA-MB-435,> 100 µM
same,TGI,MDA-N,> 100 µM
same,TGI,NCI-H226 lung,> 100 µM
same,TGI,NCI-H23 lung,> 100 µM
same,TGI,NCI-H460 lung,> 100 µM
same,TGI,NCI-H522 lung,> 100 µM
same,TGI,NCI/ADR-RES ovarian,> 100 µM
same,TGI,OVCAR-3 ovarian,> 100 µM
same,TGI,OVCAR-4 ovarian,> 100 µM
same,TGI,OVCAR-5 ovarian,> 100 µM
same,TGI,OVCAR-8 ovarian,> 100 µM
same,TGI,PC-3 prostate,> 100 µM
same,TGI,RPMI-8226 leukemia,> 100 µM
same,TGI,RXF 393 renal,> 100 µM
same,TGI,SF-268 CNS,> 100 µM
same,TGI,SF-295 CNS,> 100 µM
same,TGI,SF-539 CNS,> 100 µM
same,TGI,SK-MEL-2 melanoma,> 100 µM
same,TGI,SK-MEL-28 melanoma,> 100 µM
same,TGI,SK-MEL-5 melanoma,> 100 µM
same,TGI,SK-OV-3 ovarian,> 100 µM
same,TGI,SN12C renal,> 100 µM
same,TGI,SNB-19 CNS,> 100 µM
same,TGI,SNB-75 CNS,> 100 µM
same,TGI,SW-620 colon,> 100 µM
same,TGI,T-47D breast,> 100 µM
same,TGI,TK-10 renal,> 100 µM
same,TGI,U251 CNS,> 100 µM
same,TGI,UACC-257 melanoma,> 100 µM
same,TGI,UACC-62 melanoma,> 100 µM
same,TGI,UO-31 renal,> 100 µM
Clc1ccc(CSc2ncnc3c2ncn3C2CCCCO2)cc1 (stereo not given),TGI,786-0 renal,56.2 µM
same,TGI,A498 renal,31.9 µM
same,TGI,A549 NSCLC,> 100 µM
same,TGI,ACHN renal,29.8 µM
same,TGI,BT-549 breast,68.2 µM
same,TGI,CAKI-1 renal,> 100 µM
same,TGI,COLO 205 colon,56.9 µM
same,TGI,DU-145 prostate,> 100 µM
same,TGI,EKVX NSCLC,50.1 µM
same,TGI,HCC-2998 colon,38.1 µM
same,TGI,HCT-116 colon,53.9 µM
same,TGI,HCT-15 colon,> 100 µM
same,TGI,HOP-62 NSCLC,45.7 µM
same,TGI,HOP-92 NSCLC,89.2 µM
same,TGI,HS 578T breast,76.4 µM
same,TGI,HT29 colon,35.5 µM
same,TGI,IGROV1 ovarian,> 100 µM
same,TGI,K-562 leukemia,66.1 µM
same,TGI,KM12 colon,46.9 µM
same,TGI,LOX IMVI melanoma,36.3 µM
same,TGI,M14 melanoma,31 µM
same,TGI,MALME-3M melanoma,38.4 µM
same,TGI,MCF7 breast,83.7 µM
same,TGI,MDA-MB-231 breast,86.3 µM
same,TGI,MDA-MB-435,38.1 µM
same,TGI,MDA-N,43.8 µM
same,TGI,NCI-H226 lung,76.7 µM
same,TGI,NCI-H23 lung,64.8 µM
same,TGI,NCI-H460 lung,36.7 µM
same,TGI,NCI-H522 lung,33.7 µM
same,TGI,NCI/ADR-RES ovarian,63.2 µM
same,TGI,OVCAR-3 ovarian,32.5 µM
same,TGI,OVCAR-4 ovarian,> 100 µM
same,TGI,OVCAR-5 ovarian,> 100 µM
same,TGI,OVCAR-8 ovarian,71.5 µM
same,TGI,PC-3 prostate,74.7 µM
same,TGI,RPMI-8226 leukemia,39.4 µM
same,TGI,RXF 393 renal,80.2 µM
same,TGI,SF-268 CNS,77.4 µM
same,TGI,SF-295 CNS,36.7 µM
same,TGI,SK-MEL-2 melanoma,32 µM
same,TGI,SK-MEL-28 melanoma,48.8 µM
same,TGI,SK-MEL-5 melanoma,22.9 µM
same,TGI,SK-OV-3 ovarian,55.6 µM
same,TGI,SN12C renal,38.7 µM
same,TGI,SNB-19 CNS,> 100 µM
same,TGI,SNB-75 CNS,58.1 µM
same,TGI,SW-620 colon,> 100 µM
same,TGI,T-47D breast,57.8 µM
same,TGI,TK-10 renal,60.4 µM
same,TGI,U251 CNS,44.9 µM
same,TGI,UACC-257 melanoma,24.9 µM
same,TGI,UACC-62 melanoma,30 µM
same,TGI,UO-31 renal,4.36 µM
